Test results taken from paper PMC5068747, “Using C. elegans Forward and Reverse Genetics to Identify New Compounds with Anthelmintic Activity” (PLoS Neglected Tropical Diseases, 2016).
Several values for one entry are separate records, joined by “and”; a condition that tells them apart may be missing. Equal entries are not always repeated.

Assays:
Meloidogyne hapla J2 = assay: Immobilization of infective second-stage juveniles (J2) of Meloidogyne hapla; type: in vivo
Method: A laboratory population of the plant-parasitic northern root-knot nematode, Meloidogyne hapla, was initiated by inoculating a tomato seedling growing in a 500 ml pot of 50:50 pasteurized sandy soil:peat with ~100 infective second-stage juveniles (J2) extracted from infested soil from a vineyard in the Okanagan Valley. The population was thereafter reared on tomato under greenhouse conditions. Prior to experimentation, galled roots were removed from heavily infested tomato plants, washed over a sieve with tap water, and then placed on Baermann funnels. J2 hatchings over the first three days were collected and suspended in tap water at a concentration of 100 J2/ml. Replicate 24-well cell culture plates were seeded with 0.2 ml of J2 suspension. Dilutions of CID 2747322 in distilled water were then added to the wells to result in four replicate wells of each of six concentrations in each plate. Concentrations tested spanned 0 to 320 μM and 0 to 160 μM in the two separate runs of the experiment. Nematodes were observed using an inverted microscope at 40X. On each observation date, a transect through each well was observed and J2 within the transect were scored as mobile or immobile. J2 that had taken on a straight posture were scored as immobile. Recently hatched J2 of M. hapla normally move continuously but slowly and always have a curved posture.
Supplementary file pntd.0005058.s005.pdf: S5 Fig Dosage curve for effects on Meloidogyne hapla of CID 2747322. The percentage of immobilization of infective juveniles of Meloidogyne hapla was measure after ten days of exposure to the compound. Data are from two separate trials testing 0–320 and 0–160 μM concentration ranges, respectively, with each point representing the mean of twelve test wells. (PDF) Click here for additional data file.

[1] = tested on: C. elegans mitochondrial complex II (mev-1, sdha-1, sdhb-1, sdhd-1) mutant strains; assay: Resistance of mitochondrial complex II mutant MMP strains to CID 2747322; type: in vivo, Caenorhabditis elegans
Description: CID 2747322 shares some structural similarity to the WACT-11 compound identified by. […] This led us to examine MMP strains with mutations in the other three mitochondrial complex II subunits; sdha-1, sdhb-1 and sdhd-1, to see if any of these strains are also resistant to CID 2747322. For thirteen strains with sdha-1 missense mutations, three are resistant. For eight strains with sdhb-1 missense mutations, two are resistant. For sdhd-1, one of five MMP strains is resistant (Table 5). To better understand how these different alleles might alter drug effectiveness, we mapped all of these mutations plus gk3613 onto an X-ray resolved protein crystal structure of the mitochondrial complex II of Ascaris suum (PDB: 3VRB) (Fig 3a).

COc1ccc(OCCNC(=O)c2ccccc2C(F)(F)F)cc1 [CID 2747322, N-[2-(4-methoxyphenoxy)ethyl]-2-(trifluoromethyl)benzamide]
immobilization of M. hapla J2 (Meloidogyne hapla J2; 160 and 320 μM, 24 hours after exposure initiation, increased through day 10): Immobilization was observed
IC50 (Meloidogyne hapla J2; Meloidogyne hapla, 240 h, 10 day exposure): 129 µM and 44 µg/mL
survival of M. hapla (Meloidogyne hapla J2; extended exposure): die after extended exposure
Resistance ([1]; strain VC20295, sdhd-1 A30V): none
Resistance ([1]; strain VC20401, sdhb-1 S209L): resistant
Resistance ([1]; strain VC20417, sdha-1 E305K): none
Resistance ([1]; strain VC20501, mev-1 S178N): none
Resistance ([1]; strain VC20587, sdhb-1 E294K): none
Resistance ([1]; strain VC20602, mev-1 G77S): resistant
Resistance ([1]; strain VC30090, sdha-1 G363E): sensitive
Resistance ([1]; strain VC30107, sdha-1 S292T): sensitive
Resistance ([1]; strain VC30120, sdhd-1 L59F): none
Resistance ([1]; strain VC40073, sdha-1 S142F): sensitive
Resistance ([1]; strain VC40186, sdhb-1 D192E): none
Resistance ([1]; strain VC40193, sdhb-1 T285I): resistant
Resistance ([1]; strain VC40304, sdha-1 P385S): none
Resistance ([1]; strain VC40350, sdha-1 V131I): none
Resistance ([1]; strain VC40364, sdhb-1 N118I): sensitive
Resistance ([1]; strain VC40386, sdhd-1 A97V): resistant
Resistance ([1]; strain VC40391, sdha-1 G335E): resistant
Resistance ([1]; strain VC40423, sdhb-1 I280S): sensitive
Resistance ([1]; strain VC40533, sdha-1 R482C): resistant
Resistance ([1]; strain VC40570, sdhd-1 L120F): none
Resistance ([1]; strain VC40576, sdha-1 D317N): sensitive
Resistance ([1]; strain VC40631, sdha-1 H504Y): none
Resistance ([1]; strain VC40752, sdhb-1 A34V): sensitive
Resistance ([1]; strain VC40764, sdha-1 A425V): sensitive
Resistance ([1]; strain VC40765, sdhb-1 L197F): none
Resistance ([1]; strain VC40770, sdha-1 E472K): none
Resistance ([1]; strain VC40781, mev-1 Y152D): resistant
Resistance ([1]; strain VC40799, mev-1 R52C): none
Resistance ([1]; strain VC40903, sdhd-1 D36N): none
Resistance ([1]; strain VC40934, mev-1 G88E): none
Resistance ([1]; strain VC41025, sdha-1 S570F): sensitive
